We go through one compound from patent US20230132823A1, “BI-FUNCTIONAL COMPOUNDS AND METHODS FOR TARGETED UBIQUITINATION OF ANDROGEN RECEPTOR” (MONTELINO THERAPEUTICS, INC., priority 2020, published 2023).

Data set [1] relates to Enzalutamide-resistant CaP tumor xenografts. The data set can be described thus: Enzalutamide-resistant CaP tumor xenograft, systemic (IP or oral) dosing. Format: in vivo, mice. To be noted: four weeks, with enzalutamide, control 2200 mm^3. The method, then: In Vivo Study. To explore the therapeutic potential of Test Compound, 22Rv1, 22Rv1-Enz^R, VCaP, and VCaP-Enz^R are injected into nu/nu immunodeficient mice. When the resulting tumors reached an average size of 3 mm in diameter, all animals are surgically castrated via bilateral orchiectomy and divided into four groups of five mice each. For anesthesia, 3% isoflurane gas inhalation is used. Tumor size was measured using calipers and tumor volume was calculated using the formula: tumor volume=length×width^2[…].
Mice are then treated daily with Test Compound with or without enzalutamide via the indicated route (intratumoral, intraperitoneal, or oral) for five to six weeks. At the end of the study, all animals are sacrificed and tumors are harvested and analyzed. Statistical significance is calculated using the Student's t-test for paired comparisons of experimental groups and, where appropriate, by Wilcoxon rank sum test, and by 2-way ANOVA. In vitro experiments are repeated a minimum of three times.
To test whether the Compound is active systemically, an identical study is carried out as above except for delivering the Compound intraperitoneally (IP) or orally for four weeks. Enzalutamide-resistant CaP tumor xenografts are established in twelve mice and three each are assigned to the following four groups: control IP (vehicle), control oral (vehicle), 8.3 mg/kg IP, and 8.3 mg/kg oral. […]

A further data set relates to 22Rv1-Enz^R. The data set can be described thus: 22Rv1-Enz^R cell proliferation assay, GIC50 (Experimental Example 4). Format: cell-based. As to conditions: Homo sapiens; 6-day culture, cell media changed every 24 hours. The method, then: Selected compounds were tested in the human prostate cancer cell line, 22Rv1-Enz^R as described in Geun Taek Lee et al., Molecular Cancer Therapeutics, 20:490-9 (2021). These procedures are similar to that described in Experimental Example 1, above, except that the assay conditions are a 6-day culture with cell media changed every 24 hours.
In the Table: (+)—GIC50<20 μM; (++)—GIC50<10 μM; (+++)—GIC50<1 μM.

The test system of another data set is 22Rv1. Description: LDH assay for non-specific cytotoxicity in 22Rv1. Format: cell-based, human. To be noted: 22Rv1, up to 20 μM, six days (0.01, 0.1, 1, 10 and 20 μM tested). The method, then:
Apoptosis Assay. An apoptosis assay is carried out using the Thermo Fisher ApoDETECT Annexin V-FITC kit following the protocol recommended by the vendor. Briefly, after treatment with 1 μM of Test Compound for 3 to 24 hours, cells are fixed with 80% ethanol and washed with PBS three times. Then, fixed cells are incubated with Annexin V-FITC in PBS solution for 30 minutes at room temperature. After washing three times with PBS, cells are treated with 300 nM DAPI in PBS for 5 minutes at room temperature. Finally, after washing three times with PBS, mounting solution is added and the cells are visualized using immunofluorescence microscopy. Next, a TUNEL assay is performed using Promega DeadEnd Fluorometric TUNEL system. After treatment with Test Compound and fixation as described above in the Annexin-V experiment, 100 μl of equilibration buffer is incubated for 10 min. Then, 50 μl of TdT reaction mix is added and incubated for 60 min at 37° C. in a humidified chamber. Finally, stop solution is added and samples are mounted on slides using mounting medium. To assess non-specific cytotoxicity, an LDH assay kit is used.

Another data set concerns AR-FL. Description: Immunoblot of AR-FL in harvested xenograft tumors. The class given is in vivo, human. How it is done: (§1) Immunoblot Analysis. CaP cells are collected and lysed with the lysis buffer (20 mM Tris-HCl (pH 7.5), 150 mM NaCl, 1 mM Na2EDTA, 1 mM EGTA, 1% Triton, 2.5 mM sodium pyrophosphate, 1 mM beta-glycerophosphate, 1 mM Na3VO4, and 1 μg/ml leupeptin) containing 1 mM phenylmethylsulfonyl fluoride (PMSF). Cell lysates are then centrifuged and protein in the supernatant is quantified. After separating 25-50 μg of protein using SDS-PAGE, samples are incubated with AR-V7, GR, PR, ERα, AR-FL, ubiquitin, or β-actin antibodies. For AR-V7, AR-FL, PR, GR, and ERα immunoblots, primary antibody is diluted 1:1000 in 5% skim milk. For the β-actin immunoblot, 1:10000 diluted primary antibody is used. […] Following the incubation with appropriate secondary antibody, immunoblots are analyzed using SuperSignal West Femto Maximum Sensitivity Substrate (ThermoFisher).
(§2) Mice are then treated daily with Test Compound with or without enzalutamide via the indicated route (intratumoral, intraperitoneal, or oral) for five to six weeks. At the end of the study, all animals are sacrificed and tumors are harvested and analyzed. Statistical significance is calculated using the Student's t-test for paired comparisons of experimental groups and, where appropriate, by Wilcoxon rank sum test, and by 2-way ANOVA. […]
(§3) The in vivo effects of the Compound of Example 16 are assessed in mice using enzalutamide-resistant CaP xenografts. […]
(In general: Immunoblotting shows a protein as a band on a membrane.)

The next data set deals with T1, AR-V7 (Homo sapiens, UniProt P10275).
T1 sequence (P10275 1-644 isoform P10275-3): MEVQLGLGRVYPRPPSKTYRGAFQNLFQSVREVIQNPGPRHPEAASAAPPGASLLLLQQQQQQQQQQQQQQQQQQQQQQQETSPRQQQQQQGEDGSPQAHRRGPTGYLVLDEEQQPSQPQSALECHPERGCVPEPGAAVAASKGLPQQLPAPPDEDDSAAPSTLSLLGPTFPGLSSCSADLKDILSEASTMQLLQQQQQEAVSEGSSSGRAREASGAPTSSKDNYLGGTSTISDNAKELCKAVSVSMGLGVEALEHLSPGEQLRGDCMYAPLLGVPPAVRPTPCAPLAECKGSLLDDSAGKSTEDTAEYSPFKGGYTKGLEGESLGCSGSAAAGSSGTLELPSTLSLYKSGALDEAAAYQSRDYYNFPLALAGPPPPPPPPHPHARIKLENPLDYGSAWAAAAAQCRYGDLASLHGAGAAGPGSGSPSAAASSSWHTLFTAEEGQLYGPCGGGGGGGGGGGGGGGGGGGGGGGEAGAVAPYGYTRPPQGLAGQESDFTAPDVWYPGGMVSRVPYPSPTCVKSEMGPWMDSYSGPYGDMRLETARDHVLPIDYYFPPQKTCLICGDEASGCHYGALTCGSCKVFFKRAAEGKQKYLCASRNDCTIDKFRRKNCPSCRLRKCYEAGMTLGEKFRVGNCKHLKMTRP
Description: Immunoblot of AR-V7 in harvested xenograft tumors. Format: in vivo. Further details: endogenous in cells; host or cells: 22Rv1 (also VCaP, LNCaP and SAT-resistant sublines). The method, then: as §1, §2, §3

The mark [2] stands for this setting: intratumoral, 22Rv1-Enz^R xenograft, end of study.

For orientation: IC50 means the midpoint of a concentration-inhibition curve. High values mean a need for much substance, low ones inhibition by little substance. Regarding `Cc1ncsc1-c1ccc([C@H](C)NC(=O)[C@@H]2C[C@@H](O)CN2C(=O)[C@@H](NC(=O)CCCCNC(=O)COc2c(-c3csc(N4CCOCC4)n3)ccc(F)c2F)C(C)(C)C)cc1` [Example 16, (2S,4R)-1-((S)-2-(5-(2-(2,3-difluoro-6-(2-morpholinothiazol-4-yl)phenoxy)acetamido)pentanamido)-3,3-dimethylbutanoyl)-4-hydroxy-N-((S)-1-(4-(4-methylthiazol-5-yl)phenyl)ethyl)pyrrolidine-2-carboxamide], the figures for the tumor size entry in data set [1] (8.3 mg/kg IP) and in data set [1] (8.3 mg/kg oral (PO)) were “approximately 1000 mm^3” and “approximately 700 mm^3”, respectively. This compound yielded an IC50 in the data set with 22Rv1-Enz^R of less than 1000 nM. Besides, in the data set with 22Rv1, the “non-specific cytotoxic effect, lactate dehydrogenase (LDH) assay” value was “no non-specific cytotoxic effect”. For the same compound, the “AR-FL protein expression in Enz^R CaP tumors” value with AR-FL (IP administration) is recorded as “decreased”. The “AR-FL protein level in treated tumors” value in the data set on AR-FL (setting [2]) was “significant decrease”. The “AR-V7 protein expression in Enz^R CaP tumors” value on AR-V7 (IP administration) is recorded as “decreased”. The “AR-V7 protein level in treated tumors” value at AR-V7 (setting [2]) is recorded as “significant decrease”.
